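Five concentrations, 48 hours, 96-well plates. GI50 = concentration required for 50% inhibition of growth.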 The source made the active and inactive calls. No stated cut-off is given here; in the data, active = GI50 up to about 1.1 µM and inactive = higher.
How the values were obtained:
Assay in all cases: growth of human tumour cells (NCI), 48 h
UACC-62 = test system: UACC-62
SNB-75 = test system: SNB-75
BT-549 = test system: BT-549
SNB-19 = test system: SNB-19
LOX IMVI = test system: LOX IMVI
OVCAR-3 = test system: OVCAR-3
M14 = test system: M14
MDA-N = test system: MDA-N
NCI-H23 = test system: NCI-H23
KM12 = test system: KM12
HL-60 = test system: HL-60
SF-268 = test system: SF-268
SF-539 = test system: SF-539
TK-10 = test system: TK-10
OVCAR-5 = test system: OVCAR-5
OVCAR-8 = test system: OVCAR-8
T47D = test system: T47D
UACC-257 = test system: UACC-257
786-0 = test system: 786-0

Measured: GI50

COC(=O)CN1Cc2cc(C)cc(c2O)CN(CC(=O)OC)Cc2cc(C)cc(c2O)CN(CC(=O)OC)Cc2cc(C)cc(c2O)C1
inactive: UACC-62 > 100 µM | SNB-75 > 33.4 µM | BT-549 > 100 µM | SNB-19 > 100 µM | LOX IMVI > 65.8 µM | OVCAR-3 > 58.2 µM | M14 > 37.8 µM | MDA-N > 87.9 µM | NCI-H23 > 100 µM | KM12 > 56.2 µM | HL-60 15.4 µM | SF-268 > 100 µM | SF-539 > 80.2 µM | TK-10 > 79.8 µM | OVCAR-5 26.4 µM | OVCAR-8 > 100 µM | T47D > 20.1 µM | UACC-257 > 100 µM | 786-0 > 100 µM

Cc1ccc(/C=N/Nc2ccc3ccccc3n2)s1
inactive: UACC-62 34.8 µM | SNB-75 > 100 µM | BT-549 18.2 µM | SNB-19 21.3 µM | LOX IMVI 17.1 µM | OVCAR-3 5.58 µM | M14 16.9 µM | MDA-N 13.4 µM | NCI-H23 18.6 µM | KM12 32.3 µM | HL-60 41.5 µM | SF-268 60.1 µM | SF-539 83.4 µM | TK-10 22.1 µM | OVCAR-5 27.3 µM | OVCAR-8 26.7 µM | T47D 8.28 µM | UACC-257 6.01 µM | 786-0 18.8 µM

C[C@@H](NC(=O)c1ccc(CNC(=O)/C=C/c2cccc(Oc3ccccc3)c2)cc1)c1ccccc1
inactive: UACC-62 > 82.6 µM | SNB-75 6.18 µM | BT-549 > 94 µM | SNB-19 16.4 µM | LOX IMVI > 100 µM | OVCAR-3 72.1 µM | M14 99.1 µM | MDA-N > 100 µM | NCI-H23 > 100 µM | KM12 > 100 µM | HL-60 > 100 µM | SF-268 20.8 µM | SF-539 12.2 µM | TK-10 24.9 µM | OVCAR-5 78.9 µM | OVCAR-8 32.9 µM | T47D 27.7 µM | UACC-257 55.7 µM | 786-0 13.9 µM

CC(=O)CC(OC(C)=O)C1=CCC2C(CC1C)OC(=O)C2C (centres undefined)
inactive: UACC-62 > 100 µM | SNB-75 > 100 µM | BT-549 75 µM | SNB-19 > 100 µM | LOX IMVI 88.5 µM | OVCAR-3 > 100 µM | M14 > 100 µM | MDA-N > 100 µM | NCI-H23 > 100 µM | KM12 > 100 µM | HL-60 40.6 µM | SF-268 > 100 µM | SF-539 > 100 µM | TK-10 > 100 µM | OVCAR-5 > 100 µM | OVCAR-8 > 100 µM | T47D > 100 µM | UACC-257 > 100 µM | 786-0 > 100 µM

COC(=O)C1=C(C(=O)OC)C2(C)CCC(=O)C1O2 (centres undefined)
inactive: UACC-62 > 10 µM | SNB-75 2.7 µM | BT-549 > 10 µM | SNB-19 > 10 µM | LOX IMVI > 10 µM | OVCAR-3 > 10 µM | M14 > 10 µM | MDA-N > 10 µM | NCI-H23 > 10 µM | KM12 > 10 µM | HL-60 > 10 µM | SF-268 > 10 µM | SF-539 > 10 µM | TK-10 > 10 µM | OVCAR-5 > 10 µM | OVCAR-8 > 10 µM | T47D > 10 µM | UACC-257 > 10 µM | 786-0 > 10 µM

CC(=O)Nc1ccc(C2SCc3nc4ccccc4n32)cc1 (centres undefined)
inactive: UACC-62 > 100 µM | SNB-75 34.4 µM | BT-549 > 35.7 µM | SNB-19 > 100 µM | LOX IMVI 63.8 µM | OVCAR-3 > 100 µM | M14 > 100 µM | MDA-N > 100 µM | NCI-H23 34.6 µM | KM12 > 100 µM | HL-60 82 µM | SF-268 55.2 µM | SF-539 > 100 µM | TK-10 22.6 µM | OVCAR-5 > 100 µM | OVCAR-8 37.7 µM | T47D 48.9 µM | UACC-257 57.4 µM | 786-0 56.8 µM
